For assay [1], the target named is Nicotinamide phosphoribosyltransferase (Homo sapiens, UniProt P43490). Briefly: Inhibition of human Nampt using NAM as substrate after 15 mins by fluorometric method.
Assay [2] relates to MDA-MB-231. Description: Cytotoxicity against human MDA-MB-231 cells after 72 hrs by MTT assay. The following applies: MDA-MB-231, 72 h. It counts as functional, cell-based.
Assay [3] in a line: Cytotoxicity against human HCT116 cells after 72 hrs by MTT assay. It counts as functional, cell-based. The following applies: HCT-116, 72 h.
Assay [4] concerns HepG2. Briefly: Cytotoxicity against human HepG2 cells after 72 hrs by MTT assay. The following applies: HepG2, 72 h. It counts as functional, cell-based.
Assay [5] has as its system HepG2. Briefly: Induction of apoptosis in human HepG2 cells assessed as late apoptotic cells level at 5 uM after 48 hrs using annexin VFITC/propidium iodide staining by flow cytometry (reference value: 2.85%). It counts as functional.
Assay [6] concerns HepG2. Description: Induction of apoptosis in human HepG2 cells assessed as necrotic cells level at 5 uM after 48 hrs using annexin VFITC/propidium iodide staining by flow cytometry (reference value: 4.09%). The class given is functional.
Assay [7] relates to HepG2. Description: Induction of apoptosis in human HepG2 cells assessed as early apoptotic cells level at 5 uM after 48 hrs using annexin VFITC/propidium iodide staining by flow cytometry (reference value: 2.84%). The class given is functional.

Bounds are passed on as bounds.

Chain of Nicotinamide phosphoribosyltransferase (P43490 whole entry): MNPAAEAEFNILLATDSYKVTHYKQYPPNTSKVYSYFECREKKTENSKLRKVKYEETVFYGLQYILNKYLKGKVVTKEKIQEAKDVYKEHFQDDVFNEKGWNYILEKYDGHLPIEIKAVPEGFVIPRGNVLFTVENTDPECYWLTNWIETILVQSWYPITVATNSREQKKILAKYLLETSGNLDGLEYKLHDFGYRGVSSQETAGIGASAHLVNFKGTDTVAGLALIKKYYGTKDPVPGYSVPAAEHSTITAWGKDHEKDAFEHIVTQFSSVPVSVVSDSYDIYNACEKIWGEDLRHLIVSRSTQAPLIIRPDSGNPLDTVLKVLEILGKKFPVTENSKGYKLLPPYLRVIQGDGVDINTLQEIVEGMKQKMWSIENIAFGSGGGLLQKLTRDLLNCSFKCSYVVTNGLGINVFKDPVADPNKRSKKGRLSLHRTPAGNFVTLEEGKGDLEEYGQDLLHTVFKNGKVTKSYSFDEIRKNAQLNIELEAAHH

As to `COc1ccc(CCNC(=O)c2ccc([N+](=O)[O-])s2)cc1OC`, the IC50 in assay [1] is above 10 µM; in assay [2], above 328 µM; in assay [3], 86 µM; in assay [4], 80 µM.
Take `COc1ccc(CCNC(=O)c2cc3ccccc3s2)cc1OC`: the 50% inhibitory concentration (IC50) in assay [2] is above 293 µM; in assay [3] it was 281 µM; in assay [4] it was 82 µM.
Take `COc1ccc(CCNC(=O)/C=C/c2cccnc2)cc1OC`: the 50% inhibitory concentration (IC50) is above 10 µM in assay [1], above 401 µM in assay [2], above 401 µM in assay [3] and above 401 µM in assay [4].
Take `COc1ccc(CCNC(=O)CNC(=O)c2sccc2C)cc1OC`: the half-maximal inhibitory concentration (IC50) in assay [1] was above 10 µM; in assay [2], above 328 µM; in assay [3], 196 µM; in assay [4], 47 µM.
For `Cc1ccsc1C(=O)NCCCn1ccnc1` the same measures were above 10 µM, above 276 µM, 198 µM and 102 µM.
`O=C(NCCCn1ccnc1)c1cc2ccccc2s1`: the Activity in assay [5] worked out at 24.42%; in assay [6], 6.75%; in assay [7], 1.88%. Also, the half-inhibitory concentration (IC50) in assay [1] turned out to be 1.1 µM; in assay [2], 36 µM; in assay [3], 25 µM; in assay [4], 5.2 µM.
With `COc1ccc(CCNC(=O)c2cc3ccccc3o2)cc1OC`, the concentration for half-maximal inhibition (IC50) is 1.4 µM in assay [1], above 371 µM in assay [2], 159 µM in assay [3] and 137 µM in assay [4].
The corresponding values for `O=C(NCCCn1ccnc1)c1ccc([N+](=O)[O-])s1` are above 10 µM, above 390 µM, above 390 µM and 60 µM.
The corresponding values for `COc1ccc(CCNC(=O)c2sccc2C)cc1OC` are 5.3 µM, 191 µM, 169 µM and 99 µM.
Regarding `COc1ccc(CCNC(=O)CNC(=O)c2ccc(C)s2)cc1OC`, the IC50 was 0.95 µM in assay [1], above 401 µM in assay [2], above 401 µM in assay [3] and above 401 µM in assay [4].
As for `Cc1ccc(C(=O)NCCCn2ccnc2)s1`, the values for the Activity in assay [5], in assay [6] and in assay [7] were 47.51%, 6.62% and 1.03%, respectively. Moreover, the IC50 in assay [1] was 0.17 µM; in assay [2] it was above 320 µM; in assay [3] it was above 320 µM; in assay [4], 3.9 µM.
On to `O=C(/C=C/c1cccnc1)NCCCn1ccnc1`, for which the IC50 in assay [1] is above 10 µM; in assay [2], above 276 µM; in assay [3], above 276 µM; in assay [4], above 276 µM.
As to `O=C(NCCCn1ccnc1)c1cc2ccccc2o1`, the IC50 in assay [1] was found to be 1 µM; in assay [2], 10 µM; in assay [3] it was 61 µM; in assay [4], 11 µM.
For `COc1ccc(CCNC(=O)c2ccc(C)s2)cc1OC` the same measures were 0.86 µM, above 307 µM, above 307 µM and above 307 µM.

The record behind these values is ChEMBL document CHEMBL3751770, “Identification of benzothiophene amides as potent inhibitors of human nicotinamide phosphoribosyltransferase” (Bioorg Med Chem Lett, 2016).
